Experimental data reported in patent US12679822B2, “Alkenyl pyrimidine compound, preparation method therefor, and application thereof” (Hongyun Biotech Co., Ltd., priority 2020, dated 2026).

Legend:
Format in all cases: cell-based
[1] = target: BaF3 cell lines stably transfected with kinase EGFR L858R/T790M/C797S (Homo sapiens, UniProt P00533, T790M/C797S/L858R, cells depend on it); assay: Growth inhibition of BaF3 cell line stably transfected with kinase EGFR L858R/T790M/C797S (MTS); details: 48 h, read-out: growth inhibitory activity IC50, L858R/T790M/C797S
Experimental: (§1) Biological Activity Assay: Growth Inhibitory Activity of Compounds on Cell Lines Stably Transfected with Kinase
(§2) The activity of compounds against various mutants of kinase EGFR was evaluated by their effect of inhibiting growth of BaF3 cell lines stably transfected with kinase. The specific test method was given as follows:
(§3) 1) Culture medium: DMEM (Dulbecco's modified eagle medium) or RPMI 1640 (containing 10% fetal bovine serum, 100 μg/mL ampicillin, 100 μg/mL streptomycin).
(§4) 2) Reagent: MTS reaction solution (containing 2 mg/mL of MTS [3-(4,5-di methylthiazol-2-yl)-5-(3-carboxymethoxyphenyl)-2-(4-sulfophenyl)-2H-tetrazolium, inner Salt]; 100 μg/mL of PES (phenazine […])).
(§5) 3) Compound test: cells were incubated into a 96-well culture plate, the volume of cytosol was 90 μL, and then 10 μL of the compound at each gradient concentration was added. That is, the highest concentration was 10 μM, which was diluted stepwise by ⅓, and 8 concentration points were set in total; 0.1% DMSO (dimethyl sulfoxide) was contained in the system. The cell plate with uniformly mixed compound was cultured in a cell culture incubator (37° C.; 5% […]) for 48 h, then 20 μL of MTS reaction solution was added, uniformly mixed and incubated in the cell culture incubator (37° C.; 5% CO2) for 1-4 h; OD values at 490 nm were measured by a microplate reader (VARIOSKAN FLASH, Thermo). Two parallels were set in each group of experiments, with 0.1% (a final concentration) DMSO as a negative control, and a culture medium without cells and compounds as a blank control. The cell growth inhibition rate was calculated by the following formula: Cell growth inhibition rate %=1−(ODexperimental group−ODblank group)/(ODnegative group−ODblank group)×100%.
(§6) 4) IC50 calculation: The semi-inhibitory concentration of the compounds acting on cells was calculated using GradPad Prism 5 software according to the measured cell growth inhibition rate.

[2] = target: BaF3 cell lines stably transfected with kinase EGFR L858R/T790M (Homo sapiens, UniProt P00533, T790M/L858R, cells depend on it); assay: Growth inhibition of BaF3 cell line stably transfected with kinase EGFR L858R/T790M (MTS); details: 48 h, read-out: growth inhibitory activity IC50, L858R/T790M
Experimental: as §1, §2, §3, §4, §5, §6

[3] = target: BaF3 cell lines stably transfected with kinase EGFR L858R (Homo sapiens, UniProt P00533, L858R, cells depend on it); assay: Growth inhibition of BaF3 cell line stably transfected with kinase EGFR L858R (MTS); details: 48 h, read-out: growth inhibitory activity IC50, L858R
Sequence of BaF3 cell lines stably transfected with kinase EGFR L858R (P00533 whole entry L858R): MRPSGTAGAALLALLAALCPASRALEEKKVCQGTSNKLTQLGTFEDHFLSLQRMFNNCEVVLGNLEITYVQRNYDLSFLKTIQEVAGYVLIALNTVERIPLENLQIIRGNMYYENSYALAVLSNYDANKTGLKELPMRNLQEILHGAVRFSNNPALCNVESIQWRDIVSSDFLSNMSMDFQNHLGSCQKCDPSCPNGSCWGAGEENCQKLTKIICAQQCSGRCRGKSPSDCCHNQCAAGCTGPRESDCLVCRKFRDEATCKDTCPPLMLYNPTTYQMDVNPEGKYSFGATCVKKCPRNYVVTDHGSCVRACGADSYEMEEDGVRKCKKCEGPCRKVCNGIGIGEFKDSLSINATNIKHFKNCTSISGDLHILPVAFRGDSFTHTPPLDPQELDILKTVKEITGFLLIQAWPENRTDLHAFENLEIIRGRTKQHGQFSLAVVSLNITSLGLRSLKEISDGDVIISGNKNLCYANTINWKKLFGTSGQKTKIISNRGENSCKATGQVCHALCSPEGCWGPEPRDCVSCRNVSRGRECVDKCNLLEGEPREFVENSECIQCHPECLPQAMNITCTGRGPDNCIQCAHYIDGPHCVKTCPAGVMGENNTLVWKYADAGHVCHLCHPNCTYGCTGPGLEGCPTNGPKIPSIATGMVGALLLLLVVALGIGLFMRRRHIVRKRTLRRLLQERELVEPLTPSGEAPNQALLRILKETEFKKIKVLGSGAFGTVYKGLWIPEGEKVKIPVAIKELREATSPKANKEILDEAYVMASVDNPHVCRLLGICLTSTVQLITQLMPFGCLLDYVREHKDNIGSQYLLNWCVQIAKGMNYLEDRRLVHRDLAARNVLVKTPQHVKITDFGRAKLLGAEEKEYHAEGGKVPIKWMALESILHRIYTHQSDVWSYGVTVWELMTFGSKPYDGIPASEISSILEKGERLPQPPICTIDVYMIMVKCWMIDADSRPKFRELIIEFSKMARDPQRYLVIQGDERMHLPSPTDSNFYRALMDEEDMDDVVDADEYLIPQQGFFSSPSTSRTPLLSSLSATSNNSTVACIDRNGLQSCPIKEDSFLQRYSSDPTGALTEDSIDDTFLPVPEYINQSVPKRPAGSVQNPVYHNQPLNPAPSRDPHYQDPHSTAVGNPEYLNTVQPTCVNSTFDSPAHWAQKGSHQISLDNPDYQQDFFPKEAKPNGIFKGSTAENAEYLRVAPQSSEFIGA
Experimental: as §1, §2, §3, §4, §5, §6

[4] = target: BaF3 cell lines stably transfected with kinase EGFR Del/T790M (Homo sapiens, UniProt P00533, T790M, cells depend on it, form not given); assay: Growth inhibition of BaF3 cell line stably transfected with kinase EGFR Del/T790M (MTS); details: 48 h, read-out: growth inhibitory activity IC50, Del/T790M
Sequence of BaF3 cell lines stably transfected with kinase EGFR Del/T790M (P00533 with tags, fused parts or gaps DEL746-750/T790M, form open): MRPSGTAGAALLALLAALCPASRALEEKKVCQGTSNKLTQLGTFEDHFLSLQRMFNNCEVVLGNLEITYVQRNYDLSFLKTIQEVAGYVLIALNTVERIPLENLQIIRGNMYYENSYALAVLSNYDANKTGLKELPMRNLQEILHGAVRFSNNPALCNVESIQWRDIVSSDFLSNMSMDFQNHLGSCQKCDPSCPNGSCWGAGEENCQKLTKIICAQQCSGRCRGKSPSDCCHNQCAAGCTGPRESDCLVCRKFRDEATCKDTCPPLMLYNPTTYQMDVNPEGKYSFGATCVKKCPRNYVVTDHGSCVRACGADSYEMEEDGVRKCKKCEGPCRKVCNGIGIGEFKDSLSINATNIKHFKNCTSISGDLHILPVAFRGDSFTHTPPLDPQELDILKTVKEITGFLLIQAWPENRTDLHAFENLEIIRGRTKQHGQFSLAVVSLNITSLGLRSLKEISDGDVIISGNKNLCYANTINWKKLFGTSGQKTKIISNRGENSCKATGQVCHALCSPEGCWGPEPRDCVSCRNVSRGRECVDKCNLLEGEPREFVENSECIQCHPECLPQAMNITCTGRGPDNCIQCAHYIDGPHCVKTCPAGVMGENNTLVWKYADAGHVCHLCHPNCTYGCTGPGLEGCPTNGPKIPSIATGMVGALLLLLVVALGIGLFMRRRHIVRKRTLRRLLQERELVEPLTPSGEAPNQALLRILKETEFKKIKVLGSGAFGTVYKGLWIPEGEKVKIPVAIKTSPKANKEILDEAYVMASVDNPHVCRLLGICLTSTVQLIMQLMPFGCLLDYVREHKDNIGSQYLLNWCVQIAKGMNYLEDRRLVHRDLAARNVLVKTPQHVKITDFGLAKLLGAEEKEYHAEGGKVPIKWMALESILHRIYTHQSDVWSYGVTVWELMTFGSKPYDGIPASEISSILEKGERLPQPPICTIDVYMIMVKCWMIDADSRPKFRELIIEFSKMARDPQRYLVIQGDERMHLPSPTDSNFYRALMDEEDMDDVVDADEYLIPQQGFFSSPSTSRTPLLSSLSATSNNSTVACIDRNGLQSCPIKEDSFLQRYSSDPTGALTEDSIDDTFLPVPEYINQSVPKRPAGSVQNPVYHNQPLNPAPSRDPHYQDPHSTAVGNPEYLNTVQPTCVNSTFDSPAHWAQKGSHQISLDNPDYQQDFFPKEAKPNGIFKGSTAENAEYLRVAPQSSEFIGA
Experimental: as §1, §2, §3, §4, §5, §6

[5] = target: BaF3 cell lines stably transfected with kinase EGFR Del/T790M/C797S (Homo sapiens, UniProt P00533, T790M/C797S, cells depend on it, form not given); assay: Growth inhibition of BaF3 cell line stably transfected with kinase EGFR Del/T790M/C797S (MTS); details: 48 h, read-out: growth inhibitory activity IC50, Del/T790M/C797S
Sequence of BaF3 cell lines stably transfected with kinase EGFR Del/T790M/C797S (P00533 with tags, fused parts or gaps DEL746-750/T790M/C797S, form open): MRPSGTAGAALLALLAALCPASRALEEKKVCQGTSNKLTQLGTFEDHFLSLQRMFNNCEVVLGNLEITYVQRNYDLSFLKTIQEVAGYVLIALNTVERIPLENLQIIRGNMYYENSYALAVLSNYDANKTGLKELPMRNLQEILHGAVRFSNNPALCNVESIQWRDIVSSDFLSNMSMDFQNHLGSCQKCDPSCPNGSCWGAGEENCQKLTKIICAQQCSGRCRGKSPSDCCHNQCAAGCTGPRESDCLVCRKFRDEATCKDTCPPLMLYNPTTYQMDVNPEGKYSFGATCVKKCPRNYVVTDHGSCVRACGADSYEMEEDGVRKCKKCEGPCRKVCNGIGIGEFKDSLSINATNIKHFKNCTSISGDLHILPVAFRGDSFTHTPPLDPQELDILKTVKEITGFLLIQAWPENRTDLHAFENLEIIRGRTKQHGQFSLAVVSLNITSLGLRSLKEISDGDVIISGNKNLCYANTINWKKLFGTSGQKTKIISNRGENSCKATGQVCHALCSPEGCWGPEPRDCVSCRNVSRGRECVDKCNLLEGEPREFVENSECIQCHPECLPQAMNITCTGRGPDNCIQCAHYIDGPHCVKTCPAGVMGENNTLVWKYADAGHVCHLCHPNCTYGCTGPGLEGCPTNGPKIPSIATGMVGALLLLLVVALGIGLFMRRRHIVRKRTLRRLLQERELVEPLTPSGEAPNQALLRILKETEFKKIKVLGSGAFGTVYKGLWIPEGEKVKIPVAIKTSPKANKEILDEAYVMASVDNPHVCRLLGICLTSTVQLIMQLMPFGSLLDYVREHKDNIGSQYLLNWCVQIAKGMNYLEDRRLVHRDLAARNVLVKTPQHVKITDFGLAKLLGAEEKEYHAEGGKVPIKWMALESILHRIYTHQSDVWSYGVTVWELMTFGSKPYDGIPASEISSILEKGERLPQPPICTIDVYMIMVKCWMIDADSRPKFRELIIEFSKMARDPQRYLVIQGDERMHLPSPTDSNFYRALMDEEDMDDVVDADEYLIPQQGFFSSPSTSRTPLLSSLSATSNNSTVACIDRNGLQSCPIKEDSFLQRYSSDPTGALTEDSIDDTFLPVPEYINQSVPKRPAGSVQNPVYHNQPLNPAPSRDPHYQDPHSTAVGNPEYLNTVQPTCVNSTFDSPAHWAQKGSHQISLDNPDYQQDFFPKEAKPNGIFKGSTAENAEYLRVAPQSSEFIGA
Experimental: as §1, §2, §3, §4, §5, §6

[6] = target: BaF3 cell lines stably transfected with kinase EGFR Del (Homo sapiens, UniProt P00533, cells depend on it, form not given); assay: Growth inhibition of BaF3 cell line stably transfected with kinase EGFR Del (MTS); details: 48 h, read-out: growth inhibitory activity IC50, Del
Sequence of BaF3 cell lines stably transfected with kinase EGFR Del (P00533 with tags, fused parts or gaps DEL746-750): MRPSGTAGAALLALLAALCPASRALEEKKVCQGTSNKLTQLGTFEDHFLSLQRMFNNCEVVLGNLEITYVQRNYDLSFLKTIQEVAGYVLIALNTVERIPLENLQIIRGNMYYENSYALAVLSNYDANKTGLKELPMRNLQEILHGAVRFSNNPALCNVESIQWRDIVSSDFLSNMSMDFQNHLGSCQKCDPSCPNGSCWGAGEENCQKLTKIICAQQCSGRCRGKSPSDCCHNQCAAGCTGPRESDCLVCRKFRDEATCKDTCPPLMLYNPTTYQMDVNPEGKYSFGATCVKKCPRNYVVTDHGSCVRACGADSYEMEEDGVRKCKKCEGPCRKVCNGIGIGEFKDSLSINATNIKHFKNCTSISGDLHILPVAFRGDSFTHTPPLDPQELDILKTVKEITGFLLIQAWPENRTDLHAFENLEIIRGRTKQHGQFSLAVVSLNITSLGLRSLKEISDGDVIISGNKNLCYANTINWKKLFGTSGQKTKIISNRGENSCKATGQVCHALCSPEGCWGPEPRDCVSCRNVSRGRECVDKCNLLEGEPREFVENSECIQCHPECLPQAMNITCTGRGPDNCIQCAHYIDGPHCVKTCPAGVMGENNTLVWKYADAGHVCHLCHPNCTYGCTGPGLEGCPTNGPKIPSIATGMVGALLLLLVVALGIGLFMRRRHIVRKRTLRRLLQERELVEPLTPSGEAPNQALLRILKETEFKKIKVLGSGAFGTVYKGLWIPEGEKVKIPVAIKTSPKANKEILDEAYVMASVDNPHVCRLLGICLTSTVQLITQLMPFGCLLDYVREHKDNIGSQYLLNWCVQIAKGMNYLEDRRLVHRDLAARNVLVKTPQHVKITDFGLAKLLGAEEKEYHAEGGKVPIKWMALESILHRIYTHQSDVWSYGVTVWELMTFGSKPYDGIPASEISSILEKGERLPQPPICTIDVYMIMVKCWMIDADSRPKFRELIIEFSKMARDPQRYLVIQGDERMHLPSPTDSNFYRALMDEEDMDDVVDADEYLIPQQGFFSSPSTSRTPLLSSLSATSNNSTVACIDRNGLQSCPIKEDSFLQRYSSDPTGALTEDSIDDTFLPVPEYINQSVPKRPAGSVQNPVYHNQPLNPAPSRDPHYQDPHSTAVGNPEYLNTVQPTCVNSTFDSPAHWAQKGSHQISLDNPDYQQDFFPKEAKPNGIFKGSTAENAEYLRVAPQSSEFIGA
Experimental: as §1, §2, §3, §4, §5, §6

Compound | GI50 [1] [nM] | GI50 [2] [nM] | GI50 [3] [nM] | GI50 [4] [nM] | GI50 [5] [nM] | GI50 [6] [nM]
C=C(C)c1cnc(Nc2cc(CC)c(N3CCC(N4CCN(C)CC4)CC3)cc2OC)nc1Nc1ccc2nccnc2c1P(C)(C)=O [Compound I-15] | ≤ 50 | ≤ 50 | ≤ 50 | ≤ 50 | ≤ 50 | ≤ 50
C=Cc1cnc(Nc2cc(CC)c(N3CCC(N4CCN(C)CC4)CC3)cc2OC(F)(F)F)nc1Nc1ccc2nccnc2c1NS(C)(=O)=O [II-34] | 50 to 500 | 50 to 500 | 50 to 500 | 50 to 500 | 50 to 500 | 50 to 500
C=Cc1cnc(Nc2cc(CC)c(N3CCC(N(C)C)CC3)cc2OC)nc1Nc1ccc2nccnc2c1P(C)(C)=O [Compound I-2] | ≤ 50 | ≤ 50 | ≤ 50 | ≤ 50 | ≤ 50 | ≤ 50
C=Cc1cnc(Nc2cc(CC)c(N3CCC(C(C)C)C3)cc2OC)nc1Nc1ccc2nccnc2c1P(C)(C)=O (stereo not drawn) [Compound I-3] | ≤ 50 | 50 to 500 | ≤ 50 | ≤ 50 | ≤ 50 | 50 to 500
C=Cc1cnc(Nc2ccc(N3CCC(N4CCN(C)CC4)CC3)c(F)c2F)nc1Nc1ccc2nccnc2c1NS(C)(=O)=O [II-45] | 500 to 2500 | 50 to 500 | 50 to 500 | 50 to 500 | 500 to 2500 | 50 to 500
C=C(C)c1cnc(Nc2cc[nH]n2)nc1Nc1ccc2nccnc2c1N(C)S(C)(=O)=O [II-69] | 50 to 500 | 50 to 500 | 50 to 500 | 500 to 2500 | 500 to 2500 | 50 to 500
C=Cc1cnc(Nc2ccc3c(c2)CN(C)CC3)nc1Nc1ccc2nccnc2c1N(C)S(C)(=O)=O [II-77] | ≤ 50 | ≤ 50 | ≤ 50 | ≤ 50 | 50 to 500 | ≤ 50
C=Cc1cnc(Nc2cc(F)c(N3CCC(N4CCN(C)CC4)CC3)c(F)c2)nc1Nc1ccc2nccnc2c1S(=O)(=O)NC [IV-11] | 50 to 500 | ≤ 50 | 50 to 500 | 50 to 500 | 50 to 500 | 50 to 500
C=Cc1cnc(Nc2cc(CC)c(N3CCN(C)CC3)cc2OC)nc1Nc1ccc2nccnc2c1S(=O)(=O)NC [IV-15] | 50 to 500 | 50 to 500 | 50 to 500 | 50 to 500 | 50 to 500 | 50 to 500
C=Cc1cnc(Nc2cc(CC)c(N3CCC(N(C)C)C3)cc2OC)nc1Nc1ccc2nccnc2c1N(C)S(C)(=O)=O (stereo not drawn) [II-3] | ≤ 50 | ≤ 50 | ≤ 50 | ≤ 50 | ≤ 50 | ≤ 50
C=Cc1cnc(Nc2cc(F)c(N3CCC(N4CCN(C)CC4)CC3)c(F)c2)nc1Nc1ccc2nccnc2c1NS(C)(=O)=O [II-46] | 50 to 500 | ≤ 50 | 50 to 500 | 50 to 500 | 50 to 500 | 50 to 500
C=Cc1cnc(Nc2cc(C)n(C)n2)nc1Nc1ccc2nccnc2c1N(C)S(C)(=O)=O [II-62] | 50 to 500 | 500 to 2500 | 500 to 2500 | 500 to 2500 | 50 to 500 | 500 to 2500
C=Cc1cnc(Nc2cc(CC)c(N3CCC(N4CCN(C)CC4)CC3)cc2OC(F)(F)F)nc1Nc1ccc2nccnc2c1S(=O)(=O)NC [IV-5] | 500 to 2500 | 50 to 500 | 500 to 2500 | 50 to 500 | 500 to 2500 | 500 to 2500
C=Cc1cnc(Nc2cc(CC)c(NCCN(C)C)cc2OC)nc1Nc1ccc2nccnc2c1N(C)S(C)(=O)=O [II-50] | 50 to 500 | 50 to 500 | 500 to 2500 | 50 to 500 | 50 to 500 | 500 to 2500
C=Cc1cnc(Nc2cc(CC)c(N3CCC(N4CCN(C)CC4)CC3)nc2OC)nc1Nc1ccc2nccnc2c1P(C)(C)=O [Compound I-5] | ≤ 50 | ≤ 50 | ≤ 50 | ≤ 50 | ≤ 50 | ≤ 50
C=Cc1cnc(Nc2ccn(C(C)C)n2)nc1Nc1ccc2nccnc2c1N(C)S(C)(=O)=O [II-61] | 50 to 500 | 500 to 2500 | ≤ 50 | 500 to 2500 | 50 to 500 | 500 to 2500
C=Cc1cnc(Nc2cc3c(cc2OC)CCN(C)C3)nc1Nc1ccc2nccnc2c1N(C)S(C)(=O)=O [II-73] | 50 to 500 | 500 to 2500 | 500 to 2500 | 500 to 2500 | 500 to 2500 | 500 to 2500

More lines, now with the values ahead:

GI50 [1] [nM] | GI50 [2] [nM] | GI50 [3] [nM] | GI50 [4] [nM] | GI50 [5] [nM] | GI50 [6] [nM] | Compound
500 to 2500 | 50 to 500 | 500 to 2500 | 500 to 2500 | 500 to 2500 | 500 to 2500 | C=Cc1cnc(Nc2cc(C(C)C)c(N3CCC(N4CCN(C)CC4)CC3)cc2OC)nc1Nc1ccc2nccnc2c1S(C)(=O)=O [III-11]
500 to 2500 | 500 to 2500 | 50 to 500 | 500 to 2500 | 500 to 2500 | ≤ 50 | CCc1cc(Nc2ncc(C=C(C)C)c(Nc3ccc4nccnc4c3N(C)S(C)(=O)=O)n2)c(OC)cc1N1CCC(N2CCN(C)CC2)CC1 [II-26]
500 to 2500 | 50 to 500 | 500 to 2500 | 50 to 500 | 500 to 2500 | 50 to 500 | C=Cc1cnc(Nc2cc(CC)c(N3CCC(N4CCN(C)CC4)CC3)cc2OC)nc1Nc1ccc2nccnc2c1S(C)(=O)=O [III-1]
≤ 50 | 50 to 500 | ≤ 50 | ≤ 50 | 50 to 500 | ≤ 50 | C=Cc1cnc(Nc2cc(CC3CC3)c(N3CCC(N4CCN(C)CC4)CC3)cc2OC)nc1Nc1ccc2nccnc2c1NS(C)(=O)=O [II-37]
≤ 50 | ≤ 50 | ≤ 50 | ≤ 50 | ≤ 50 | ≤ 50 | C=C(C)c1cnc(Nc2cc(CC)c(N3CCC(N4CCN(C)CC4)CC3)cc2OC)nc1Nc1ccc2nccnc2c1N(C)S(C)(=O)=O [II-21]
≤ 50 | 50 to 500 | 50 to 500 | ≤ 50 | 50 to 500 | 50 to 500 | C=Cc1cnc(Nc2cc(CC)c(N3CCC(N4CCN(C)CC4)CC3)cc2OC)nc1Nc1ccc2nccnc2c1N(C)S(=O)(=O)CC [II-9]
50 to 500 | 50 to 500 | 50 to 500 | ≤ 50 | 50 to 500 | 50 to 500 | C=Cc1cnc(Nc2cc(C3CC3)c(N3CCC(N4CCN(C)CC4)CC3)cc2OC)nc1Nc1ccc2nccnc2c1N(C)S(C)(=O)=O [II-18]
50 to 500 | 50 to 500 | 50 to 500 | 50 to 500 | 50 to 500 | 50 to 500 | C=Cc1cnc(Nc2cc(C)c(N3CCC(N4CCN(C)CC4)CC3)cc2OC)nc1Nc1ccc2nccnc2c1S(=O)(=O)NC [IV-2]
500 to 2500 | 500 to 2500 | 50 to 500 | 500 to 2500 | 500 to 2500 | ≤ 50 | CCc1cc(Nc2ncc(/C=C/C3CC3)c(Nc3ccc4nccnc4c3N(C)S(C)(=O)=O)n2)c(OC)cc1N1CCC(N2CCN(C)CC2)CC1 [II-28]
≤ 50 | ≤ 50 | ≤ 50 | ≤ 50 | ≤ 50 | ≤ 50 | C=Cc1cnc(Nc2cc(CC3CC3)c(N3CCC(N4CCN(C)CC4)CC3)cc2OC)nc1Nc1ccc2nccnc2c1N(C)S(C)(=O)=O [II-7]
50 to 500 | 500 to 2500 | 50 to 500 | 50 to 500 | 500 to 2500 | 50 to 500 | C=Cc1cnc(Nc2cc(C(C)C)c(N3CCC(N4CCN(C)CC4)CC3)cc2OC)nc1Nc1ccc2nccnc2c1NS(C)(=O)=O [II-35]
